No end group written: not given here.
Experiments:
Assay type in all cases: cell-based
[1] = test system: melanocytes (B16F10 cell line); test: Melanogenesis assay; details: mouse melanin cell line B16F10, peptide at different concentrations, 72 hours
Procedure: After melanocytes (B16F10 cell line) in 6-well plates were cultured in an incubator at 37° C. for 24 hours, the medium of each plate was removed and exchanged with fresh medium, followed by treatment with the present peptide at different concentrations. After the incubation for 72 hours, the culture medium was removed, and the cells were taken off and then transferred into 5-ml tubes, followed by centrifugation at 13,000 rpm for 3 minutes. The supernatant was removed, and cell pellets were collected to observe melanin. Then, 150 μl of 2 M NaOH was added to the cell pellets to lyse intracellular melanin at 60° C. for 30 minutes. Then, 100 μl of the supernatant obtained from the lysis was added into each well of 96-well plates, and the absorbance was measured at 490 nm.

tyrosinase [2] = test: Tyrosinase activity assay in B16F10 cell lysate (L-dopa); details: mouse melanin cell line B16F10, peptide at different concentrations, 72 hours
Procedure: Melanoma cell line (B16F10) cells were cultured in 6-well culture plates for 24 hours, and treated with the peptide with difference concentrations, followed by culture for 72 hours. The 6-well culture plates were loaded on ice and washed with cool PBS, and then 300 μl of 0.1 M sodium phosphate buffer (pH 6 lysis buffer) containing 1% Triton X-100 was added. The cells were collected in 1.5-mL tubes, and then cell membranes were disrupted by repeating five times rapid-freezing at […] and thawing. After centrifugation at 13,000 rpm for 20 minutes, the supernatant was collected in other 1.5-mL tubes, and the protein of the samples was quantified. The samples were diluted to have the same protein concentration and then dispensed in every three wells in 96-well culture plates, and then 20 μl of 10 mM L-dopa was added, followed by incubation at 37° C. for 1 hour. The absorbance was measured at 475 nm.

MITF [3] = test: RT-PCR of melanogenesis-related genes: MITF; details: mouse melanin cell line B16F10, 72 hours
Procedure: (§1) Melanocytes (B16F10 cell line) were incubated on 6-well culture plates in an incubator for 24 hours, and were treated with the peptides of the present invention with different concentrations. After RNA was extracted from the cells incubated for 72 hours, cDNA was prepared. PCR was performed by using respective primers specific to MITF and tyrosinase, which are the factors involved in melanogenesis, and the expression changes of the respective genes were observed.

tyrosinase [4] = test: RT-PCR of melanogenesis-related genes: tyrosinase; details: mouse melanin cell line B16F10, 72 hours
Procedure: as §1

TRP1 = test: RT-PCR of melanogenesis-related genes: TRP1; details: mouse melanin cell line B16F10, 72 hours
tyrosinase [5] = test: Western blotting of melanogenesis-related proteins: tyrosinase; details: mouse melanin cell line B16F10, 72-hour incubation
Procedure: (§2) Melanocytes (B16F10 cell line) were incubated on 6-well culture plates in an incubator for 24 hours, and were treated with the peptides of the present invention with different concentrations. After 72-hour incubation, the cells were lysed, and the cells were subjected to western blotting using specific antibodies (two types, both by Santa Cruz Biotechnology, USA) to investigate the expression of MITF and tyrosinase, which are the factors involved in melanogenesis.

MITF [6] = test: Western blotting of melanogenesis-related proteins: MITF; details: mouse melanin cell line B16F10, 72-hour incubation
Procedure: as §2

CREB = test: Melanogenesis-related protein activity assay (CREB phosphorylation, western blotting); details: mouse melanin cell line B16F10, 72-hour incubation
Procedure: as §2, with “peptide” for “peptides”, “(Cell Signaling Technology,” for “(two types, both by Santa Cruz Biotechnology,”, “phosphorylation level” for “expression”, “CREB,” for “MITF and tyrosinase,”, “is a signaling substance” for “are the factors”

FCLGPCPYIWSL (cysteine pairing not given here) [SEQ ID NO: 2]
increased: melanogenesis (melanin, absorbance at 490 nm) [1] | tyrosinase activity (absorbance at 475 nm) (tyrosinase [2]) | mRNA expression of MITF (MITF [3]) | mRNA expression of tyrosinase (tyrosinase [4]) | mRNA expression of TRP1 (TRP1) | protein expression of tyrosinase (tyrosinase [5])

RWRRKIEN [SEQ ID NO: 1]
increased: melanogenesis (melanin, absorbance at 490 nm) [1] | tyrosinase activity (absorbance at 475 nm) (tyrosinase [2]) | mRNA expression of MITF (MITF [3]) | mRNA expression of tyrosinase (tyrosinase [4]) | mRNA expression of TRP1 (TRP1) | protein expression of the MITF transcriptional factor (MITF [6]) | protein expression of tyrosinase (tyrosinase [5]) | phosphorylation level of CREB (CREB)

Reference: patent US10526373B2, “Peptide showing melanin generation-promoting activity and use thereof” (CAREGEN CO., LTD., priority 2016, dated 2020)
